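Each compound was tested at five concentrations against cells in 96-well plates for 48 hours. The concentration for full growth arrest is given as TGI.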
How the values were obtained:
Assay in all cases: NCI tumour cell line growth inhibition, 48 h
SN12C renal = system: SN12C renal
SR leukemia = system: SR leukemia
SF-539 CNS = system: SF-539 CNS
SF-268 CNS = system: SF-268 CNS
A498 renal = system: A498 renal
RPMI-8226 leukemia = system: RPMI-8226 leukemia
IGROV1 ovarian = system: IGROV1 ovarian
SW-620 colon = system: SW-620 colon
XF 498 CNS = system: XF 498 CNS
K-562 leukemia = system: K-562 leukemia
MOLT-4 leukemia = system: MOLT-4 leukemia
HCT-15 colon = system: HCT-15 colon
SK-MEL-5 melanoma = system: SK-MEL-5 melanoma
HCT-116 colon = system: HCT-116 colon
M14 melanoma = system: M14 melanoma
DMS 273 small cell lung = system: DMS 273 small cell lung
MALME-3M melanoma = system: MALME-3M melanoma
COLO 205 colon = system: COLO 205 colon
SK-MEL-28 melanoma = system: SK-MEL-28 melanoma
SNB-75 CNS = system: SNB-75 CNS
NCI-H460 lung = system: NCI-H460 lung
OVCAR-5 ovarian = system: OVCAR-5 ovarian
M19-MEL melanoma = system: M19-MEL melanoma
UO-31 renal = system: UO-31 renal
A549 NSCLC = system: A549 NSCLC
786-0 renal = system: 786-0 renal
SK-MEL-2 melanoma = system: SK-MEL-2 melanoma
OVCAR-4 ovarian = system: OVCAR-4 ovarian
HOP-92 NSCLC = system: HOP-92 NSCLC
SNB-19 CNS = system: SNB-19 CNS
HT29 colon = system: HT29 colon
LOX IMVI melanoma = system: LOX IMVI melanoma
UACC-62 melanoma = system: UACC-62 melanoma
KM20L2 colon = system: KM20L2 colon
DMS 114 small cell lung = system: DMS 114 small cell lung
HCC-2998 colon = system: HCC-2998 colon
OVCAR-3 ovarian = system: OVCAR-3 ovarian
U251 CNS = system: U251 CNS
NCI-H522 lung = system: NCI-H522 lung
NCI-H23 lung = system: NCI-H23 lung
DLD-1 colon = system: DLD-1 colon
LXFL 529 NSCLC = system: LXFL 529 NSCLC
CAKI-1 renal = system: CAKI-1 renal
KM12 colon = system: KM12 colon
TK-10 renal = system: TK-10 renal
OVCAR-8 ovarian = system: OVCAR-8 ovarian
HOP-62 NSCLC = system: HOP-62 NSCLC
CCRF-CEM leukemia = system: CCRF-CEM leukemia
SK-OV-3 ovarian = system: SK-OV-3 ovarian
RXF-631 renal = system: RXF-631 renal
UACC-257 melanoma = system: UACC-257 melanoma
HL-60(TB) leukemia = system: HL-60(TB) leukemia
NCI-H226 lung = system: NCI-H226 lung
ACHN renal = system: ACHN renal
HOP-18 NSCLC = system: HOP-18 NSCLC
SF-295 CNS = system: SF-295 CNS
EKVX NSCLC = system: EKVX NSCLC
RXF 393 renal = system: RXF 393 renal
SNB-78 CNS = system: SNB-78 CNS

`CC12C/C(=C\c3ccccc3)C(=O)C3C1CCCC32` gave a TGI (SN12C renal) of over 100 µM, a TGI (SR leukemia) of over 100 µM and a TGI (SF-539 CNS) of over 100 µM. For the same molecule, the TGI (SF-268 CNS) was over 100 µM, the TGI (A498 renal) was over 100 µM and the TGI (RPMI-8226 leukemia) was over 100 µM. For the same molecule, the TGI (IGROV1 ovarian) was over 100 µM, the TGI (SW-620 colon) was over 100 µM and the TGI (XF 498 CNS) was over 100 µM. For the same molecule, the TGI (K-562 leukemia) was over 100 µM, the TGI (MOLT-4 leukemia) was 53.1 µM and the TGI (HCT-15 colon) was over 100 µM. The TGI (SK-MEL-5 melanoma) was over 100 µM, the TGI (HCT-116 colon) was over 100 µM and the TGI (M14 melanoma) was over 100 µM. It also gave a TGI (DMS 273 small cell lung) of over 100 µM, a TGI (MALME-3M melanoma) of over 100 µM and a TGI (COLO 205 colon) of over 100 µM. It also gave a TGI (SK-MEL-28 melanoma) of over 100 µM, a TGI (SNB-75 CNS) of over 100 µM and a TGI (NCI-H460 lung) of over 100 µM. It also gave a TGI (OVCAR-5 ovarian) of over 100 µM, a TGI (M19-MEL melanoma) of over 100 µM and a TGI (UO-31 renal) of over 100 µM. For the same molecule, the TGI (A549 NSCLC) was over 100 µM, the TGI (786-0 renal) was over 100 µM and the TGI (SK-MEL-2 melanoma) was over 100 µM. It also gave a TGI (OVCAR-4 ovarian) of over 100 µM, a TGI (HOP-92 NSCLC) of over 100 µM and a TGI (SNB-19 CNS) of over 100 µM. The TGI (HT29 colon) was over 100 µM, the TGI (LOX IMVI melanoma) was over 100 µM and the TGI (UACC-62 melanoma) was over 100 µM. For the same molecule, the TGI (KM20L2 colon) was over 100 µM, the TGI (DMS 114 small cell lung) was over 100 µM and the TGI (HCC-2998 colon) was over 100 µM. For the same molecule, the TGI (OVCAR-3 ovarian) was over 100 µM, the TGI (U251 CNS) was over 100 µM and the TGI (NCI-H522 lung) was over 100 µM. For the same molecule, the TGI (NCI-H23 lung) was over 100 µM, the TGI (DLD-1 colon) was over 100 µM and the TGI (LXFL 529 NSCLC) was over 100 µM. The TGI (CAKI-1 renal) was over 100 µM, the TGI (KM12 colon) was over 100 µM and the TGI (TK-10 renal) was over 100 µM. The TGI (OVCAR-8 ovarian) was over 100 µM, the TGI (HOP-62 NSCLC) was over 100 µM and the TGI (CCRF-CEM leukemia) was over 100 µM. It also gave a TGI (SK-OV-3 ovarian) of over 100 µM, a TGI (RXF-631 renal) of over 100 µM and a TGI (UACC-257 melanoma) of over 100 µM. It also gave a TGI (HL-60(TB) leukemia) of 55.6 µM, a TGI (NCI-H226 lung) of over 100 µM and a TGI (ACHN renal) of over 100 µM. For the same molecule, the TGI (HOP-18 NSCLC) was over 100 µM and the TGI (SF-295 CNS) was over 100 µM.
With `CC(C)(C)NNC(=O)CCn1[nH]c(=O)c(Cl)c(Cl)c1=O` the TGI (SN12C renal) was over 100 µM, the TGI (SF-539 CNS) was over 100 µM and the TGI (SF-268 CNS) was over 100 µM. It also gave a TGI (EKVX NSCLC) of over 100 µM, a TGI (A498 renal) of over 100 µM and a TGI (RPMI-8226 leukemia) of over 100 µM. The TGI (IGROV1 ovarian) was over 100 µM, the TGI (SW-620 colon) was over 100 µM and the TGI (XF 498 CNS) was over 100 µM. It also gave a TGI (K-562 leukemia) of over 100 µM, a TGI (MOLT-4 leukemia) of over 100 µM and a TGI (HCT-15 colon) of over 100 µM. The TGI (M14 melanoma) was over 100 µM, the TGI (DMS 273 small cell lung) was over 100 µM and the TGI (MALME-3M melanoma) was over 100 µM. It also gave a TGI (COLO 205 colon) of over 100 µM, a TGI (SK-MEL-28 melanoma) of over 100 µM and a TGI (SNB-75 CNS) of over 100 µM. For the same molecule, the TGI (NCI-H460 lung) was over 100 µM, the TGI (OVCAR-5 ovarian) was over 100 µM and the TGI (M19-MEL melanoma) was over 100 µM. For the same molecule, the TGI (RXF 393 renal) was over 100 µM, the TGI (UO-31 renal) was over 100 µM and the TGI (A549 NSCLC) was over 100 µM. It also gave a TGI (786-0 renal) of over 100 µM, a TGI (SK-MEL-2 melanoma) of over 100 µM and a TGI (OVCAR-4 ovarian) of over 100 µM. The TGI (SNB-19 CNS) was over 100 µM, the TGI (HT29 colon) was over 100 µM and the TGI (LOX IMVI melanoma) was over 100 µM. It also gave a TGI (UACC-62 melanoma) of over 100 µM, a TGI (KM20L2 colon) of over 100 µM and a TGI (DMS 114 small cell lung) of over 100 µM. The TGI (HCC-2998 colon) was over 100 µM, the TGI (OVCAR-3 ovarian) was over 100 µM and the TGI (U251 CNS) was over 100 µM. The TGI (NCI-H522 lung) was over 100 µM, the TGI (NCI-H23 lung) was over 100 µM and the TGI (DLD-1 colon) was over 100 µM. The TGI (LXFL 529 NSCLC) was over 100 µM, the TGI (CAKI-1 renal) was over 100 µM and the TGI (KM12 colon) was over 100 µM. It also gave a TGI (TK-10 renal) of over 100 µM, a TGI (OVCAR-8 ovarian) of over 100 µM and a TGI (HOP-62 NSCLC) of over 100 µM. It also gave a TGI (CCRF-CEM leukemia) of over 100 µM, a TGI (SK-OV-3 ovarian) of over 100 µM and a TGI (RXF-631 renal) of over 100 µM. For the same molecule, the TGI (UACC-257 melanoma) was over 100 µM, the TGI (HL-60(TB) leukemia) was over 100 µM and the TGI (NCI-H226 lung) was over 100 µM. The TGI (ACHN renal) was over 100 µM, the TGI (HOP-18 NSCLC) was over 100 µM and the TGI (SF-295 CNS) was over 100 µM.
With `O=C1c2ccccc2C(=O)N1CCn1ccc(NC(c2ccccc2)(c2ccccc2)c2ccccc2)nc1=O` the TGI (SN12C renal) was 83 µM, the TGI (SF-539 CNS) was 30.6 µM and the TGI (SF-268 CNS) was 45.3 µM. It also gave a TGI (EKVX NSCLC) of over 100 µM, a TGI (A498 renal) of 38.6 µM and a TGI (RPMI-8226 leukemia) of 51.3 µM. It also gave a TGI (IGROV1 ovarian) of 58.4 µM, a TGI (SW-620 colon) of over 100 µM and a TGI (XF 498 CNS) of 30.3 µM. For the same molecule, the TGI (K-562 leukemia) was 63.8 µM, the TGI (MOLT-4 leukemia) was 43 µM and the TGI (HCT-15 colon) was 62.6 µM. The TGI (SK-MEL-5 melanoma) was 31.2 µM, the TGI (HCT-116 colon) was 32.4 µM and the TGI (M14 melanoma) was 43 µM. The TGI (DMS 273 small cell lung) was 36.6 µM, the TGI (MALME-3M melanoma) was 43.2 µM and the TGI (COLO 205 colon) was 31.4 µM. For the same molecule, the TGI (SK-MEL-28 melanoma) was 32.1 µM, the TGI (SNB-75 CNS) was 74 µM and the TGI (NCI-H460 lung) was 65.5 µM. For the same molecule, the TGI (OVCAR-5 ovarian) was 62.6 µM, the TGI (M19-MEL melanoma) was 32.6 µM and the TGI (RXF 393 renal) was 35.5 µM. It also gave a TGI (UO-31 renal) of 52.8 µM, a TGI (A549 NSCLC) of over 100 µM and a TGI (786-0 renal) of over 100 µM. It also gave a TGI (SK-MEL-2 melanoma) of 43.2 µM, a TGI (SNB-78 CNS) of over 100 µM and a TGI (OVCAR-4 ovarian) of 59.2 µM. The TGI (HOP-92 NSCLC) was 53.3 µM, the TGI (SNB-19 CNS) was 86.1 µM and the TGI (HT29 colon) was 30.5 µM. For the same molecule, the TGI (LOX IMVI melanoma) was 31.8 µM, the TGI (UACC-62 melanoma) was 26 µM and the TGI (KM20L2 colon) was 27.5 µM. For the same molecule, the TGI (DMS 114 small cell lung) was 50 µM, the TGI (HCC-2998 colon) was 37.7 µM and the TGI (OVCAR-3 ovarian) was 65.8 µM. The TGI (U251 CNS) was 32.3 µM, the TGI (NCI-H522 lung) was 45.9 µM and the TGI (NCI-H23 lung) was 60.2 µM. For the same molecule, the TGI (DLD-1 colon) was 38.9 µM, the TGI (LXFL 529 NSCLC) was over 100 µM and the TGI (CAKI-1 renal) was over 100 µM. It also gave a TGI (KM12 colon) of 49.1 µM, a TGI (TK-10 renal) of 69.5 µM and a TGI (OVCAR-8 ovarian) of over 100 µM. It also gave a TGI (HOP-62 NSCLC) of 33 µM, a TGI (CCRF-CEM leukemia) of 59.3 µM and a TGI (SK-OV-3 ovarian) of over 100 µM. The TGI (RXF-631 renal) was 40.4 µM, the TGI (UACC-257 melanoma) was 34.7 µM and the TGI (HL-60(TB) leukemia) was 44.2 µM. It also gave a TGI (NCI-H226 lung) of 34.1 µM, a TGI (ACHN renal) of 92.7 µM and a TGI (HOP-18 NSCLC) of 42.6 µM. The TGI (SF-295 CNS) was 28.8 µM.
